Molecules are shown by their SMILES.

The test addresses T1, human FAAH (Homo sapiens, UniProt O00519).
T1 construct: host or cells: COS-7 cells, transient transfection; 13,000 g membrane fraction solubilised in 1% Triton X-100
T1 sequence (O00519 1-579): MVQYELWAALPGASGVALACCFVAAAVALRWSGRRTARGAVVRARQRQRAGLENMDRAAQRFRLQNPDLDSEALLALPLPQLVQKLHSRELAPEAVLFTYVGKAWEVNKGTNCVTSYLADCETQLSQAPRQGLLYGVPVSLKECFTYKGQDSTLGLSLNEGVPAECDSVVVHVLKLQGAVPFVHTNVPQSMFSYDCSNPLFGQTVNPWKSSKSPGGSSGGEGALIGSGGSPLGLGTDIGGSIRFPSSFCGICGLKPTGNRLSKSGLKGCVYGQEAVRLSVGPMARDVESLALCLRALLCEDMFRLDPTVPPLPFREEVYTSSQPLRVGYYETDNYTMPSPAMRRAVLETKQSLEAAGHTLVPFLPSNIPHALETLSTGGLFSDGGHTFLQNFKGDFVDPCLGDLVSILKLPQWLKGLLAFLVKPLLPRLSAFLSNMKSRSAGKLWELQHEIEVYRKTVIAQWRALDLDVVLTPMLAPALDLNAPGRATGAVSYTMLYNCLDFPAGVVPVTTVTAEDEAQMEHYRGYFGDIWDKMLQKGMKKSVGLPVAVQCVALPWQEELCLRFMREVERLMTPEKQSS
The test is described as follows: Inhibition of human FAAH (fluorescence assay, AMC arachidonoyl amide substrate). It counts as biochemical. The following applies: solubilized human FAAH from transfected COS-7 cells; 30 min preincubation; 20 μM AMC-arachidonoyl amide; 4 h at room temperature. Here is the method:
Human FAAH Preparation: COS-7 cells were split the day before, 1:5 into 150 mm×25 mm cell culture dishes (Corning Inc., Cat. No. 430599). Transient transfection took place at 30-40% confluency according to FuGENE 6 Transfection Reagent (Roche, Cat. No. 11814 443 001).
Transfection Procedure: The FuGENE transfection 6 reagent (45 uL) was added to 1410 μL of media (DMEM, serum free without pen/strep) in a 15 mL conical tube and incubated at room temp for 5 minutes, followed by the addition of FAAH plasmid DNA (15 μg) (OriGene Cat. No. TC119221, Genbank Accession No. NM_001441.1, 0.67 ug/uL) and a further incubation of 15 minutes at room temperature. The resulting solution was added into one dish of 30-40% confluent COS-7 cells in a drop-wise manner. The COS-7 cell dish was subsequently incubated for 48 hours. The cells are then harvested.
Harvest procedure: Media was aspirated from the dishes and the cells rinsed with 10 mL PBS. The PBS was removed and 3 mL of PBS added to the dish. The dish was scraped to resuspend the cells, and the subsequent cell suspension collected into a 15 mL conical tube. The cells were pelleted by centrifugation at 1200 rpm for 5 minutes in a bench top centrifuge. PBS was removed and the cell pellet snap frozen in liquid nitrogen and stored at −80° C.
COS-7 cells—FAAH purification: • (1) Fractionation: Frozen cell pellets from transient transfections were thawed on ice and resuspended in 12.5 mM Hepes pH 8.0, 100 mM NaCl, 1 mM EDTA (10 mL/0.2 g cell pellet). The pellets were dounce homogenized and then sonicated to produce cell extract. The cell extract was subsequently centrifuged at 1000 g to remove cellular debris. The pellet was discarded and the supernatant centrifuged at 13,000 g for 20 minutes. The pellet contained membrane bound FAAH. The supernatant was discarded and the pellet resolubilized. • (2) Re-solubilization: The fraction of interest, (13,000 g, membrane fraction) was re-suspended in 2.3 mL re-suspension buffer (20 mM Hepes pH 7.8, 10% v/v Glycerol, 1 mM EDTA, 1% Triton X-100) and the sample incubated on ice for 1 hour and then centrifuged to remove any particulate matter. The supernatant containing solubilized human FAAH was aliquoted and snap frozen in liquid nitrogen and stored at 80° C. until use. • (3) Characterization: Protein Concentration determined by Bradford assay. • SDS gel and Western blot to confirm presence of FAAH • FAAH activity assay • Km determination—96-well assay • Linear dependence—96-well assay • Standard compound Ki determination—384-well assay
Human FAAH assay; Experimental Protocol: A 0.1 mg/mL Human FAAH solution was made up in FAAH reaction buffer, and 24 ul pipeted into a 384 well plate. To this was added 1 μL of a 3 fold serially diluted inhibitor from a DMSO stock solution. The FAAH solution and inhibitor were incubated for 30 minutes at room temperature. The FAAH reaction was initiated by the addition of 25 μL of 40 μM AMC Arachidonoyl Amide in FAAH reaction buffer, yielding a final reaction human FAAH preparation concentration of 0.05 mg/ml and AMC-Arachidonoyl substrate concentration of 20 μM, reaction volume 50 μL. The reaction was allowed to proceed for 4 hours at room temperature. The reaction was stopped by the addition of 25 μL 12 μM a-ketoheterocycle (Cayman Chemicals, catalogue #10435). The microtiter plate was read in the envision plate reader.
The raw fluorescence was plotted on the y axis and the inhibitor concentration on the x axis to give a dose response inhibition curve. The data was fitted to a single site competitive inhibition equation, fixing the Km for the human enzyme to 12 μM and 9 μM respectively.
In general, Ki refers to a measure of affinity in units of concentration, obtained from inhibition or displacement. Take `BrC1=NOC2(CCNCC2)C1` [III-14]: the Ki is no less than 1000 nM.

Compound `BrC1=NOC2(CCN(CCc3ccccc3)CC2)C1` [III-29] yielded a Ki of no more than 100 nM.

`BrC1=NOC2(CCN(c3ccccc3)CC2)C1` [III-30] returned an inhibition constant (Ki) of 100 to 1000 nM.

Compound `O=C(OCc1ccccc1)N1CCC2(CC1)CC(N1CCCC1)=NO2` [III-59] returned a Ki of no less than 1000 nM.

Take `CC(C)(C)OC(=O)N1CCC[C@]2(CC1)CC(Br)=NO2` [III-12b]: the inhibitory constant (Ki) was no more than 100 nM.

As for `O=C(c1ccccc1)N1CCC2(CC1)CC(Br)=NO2` [III-16], the Ki is no more than 100 nM.

On to `FC(F)(F)Oc1ccc2c(c1)CC[C@]21CC(Oc2cncc(-c3nnco3)c2)=NO1` [III-73b], for which the Ki is no more than 100 nM.

As for `BrC1=NO[C@]2(CC[C@H](c3ccccc3)CC2)C1` [III-3a], the inhibition constant (Ki) is no more than 100 nM.

As to `O=C(c1ccc(Cl)cc1)N1CCC2(CC1)CC(Oc1cncnc1)=NO2` [III-55], the inhibition constant Ki was no more than 100 nM.

In turn, `BrC1=NOC2(CCN(CCCc3ccccc3)CC2)C1` [III-28] showed a Ki of no more than 100 nM.

The compound `BrC1=NOC2(CCCCC2)C1` [III-1] showed an inhibition constant Ki of no more than 100 nM.

On to `CS(=O)(=O)c1ccc(OC2=NO[C@@]3(CCc4cc(OC(F)(F)F)ccc43)C2)cn1` [III-68b], for which the Ki is no more than 100 nM.

`O=S(=O)(c1ccccc1)N1CCC2(CC1)CC(Br)=NO2` [III-17] yielded an inhibitory constant (Ki) of 100 to 1000 nM.

`Cn1nccc1-c1ccc(OC2=NO[C@]3(CCc4cc(OC(F)(F)F)ccc43)C2)cn1` [III-71a] gave an inhibition constant Ki of no more than 100 nM.

`BrC1=NOC2(CCN(c3ccc(Br)cc3)CC2)C1` [III-31] returned an inhibitory constant (Ki) of 100 to 1000 nM.

In the case of `C#Cc1ccc(CN2CCC3(CC2)CC(Br)=NO3)cc1` [III-49], the Ki is no more than 100 nM.

With `Clc1ccc(CN2CCC3(CC2)CC(Br)=NO3)cc1` [III-20], the Ki was no more than 100 nM.

These data come from US8765735B2, “Isoxazolines as inhibitors of fatty acid amide hydrolase” (Infinity Pharmaceuticals, Inc., priority 2009, dated 2014).
